# Source: article PMC8453635, “Piperidine Azasugars Bearing Lipophilic Chains: Stereoselective Synthesis and Biological Activity as Inhibitors of Glucocerebrosidase (GCase)” (The Journal of Organic Chemistry, 2021)
# Residue numbers refer to the chain shown, from its start. “Also recorded” adds a separate entry of the source.
# Legend:
# GCase = target: T1, GCase (Homo sapiens, UniProt P04062); assay: GCase inhibition in human leukocyte homogenates; assay type: biochemical; details: for GCase inhibition [%]: human leukocytes extracts incubated with azasugars (1 mM); for IC50: human leukocytes from healthy donors, substrate 4-methylumbelliferyl-β-D-glucoside 3.33 mM
# T1 construct: screened toward GCase in leukocytes isolated from healthy donors (controls); from tissue; host or cells: leukocytes isolated from healthy donors, disrupted by sonication
# T1 sequence (P04062 40-536): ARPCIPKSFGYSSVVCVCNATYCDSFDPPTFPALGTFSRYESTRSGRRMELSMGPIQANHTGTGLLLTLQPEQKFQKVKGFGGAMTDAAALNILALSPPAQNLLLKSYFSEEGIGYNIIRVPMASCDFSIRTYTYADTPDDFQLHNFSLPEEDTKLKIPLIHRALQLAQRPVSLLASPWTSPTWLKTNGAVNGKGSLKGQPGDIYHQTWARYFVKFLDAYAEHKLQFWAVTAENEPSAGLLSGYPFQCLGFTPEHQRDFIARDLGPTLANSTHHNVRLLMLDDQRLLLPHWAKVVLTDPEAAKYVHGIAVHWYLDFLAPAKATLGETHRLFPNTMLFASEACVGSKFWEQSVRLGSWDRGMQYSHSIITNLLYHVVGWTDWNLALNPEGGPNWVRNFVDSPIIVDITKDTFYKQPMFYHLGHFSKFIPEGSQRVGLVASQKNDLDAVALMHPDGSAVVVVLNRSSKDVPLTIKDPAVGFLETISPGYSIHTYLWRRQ
# Method: Compounds 14, 15, and 33·HCl were then tested at 1 mM for GCase inhibition in human leukocyte homogenates. The results obtained were compared with data of previously reported compounds 9, 11, and 12.[12],[16],[17]
# The compounds 14, 15, and 33·HCl were screened toward GCase in leukocytes isolated from healthy donors (controls). Isolated leukocytes were disrupted by sonication, and a micro BCA protein assay kit (Sigma-Aldrich) was used to determine the total protein amount for the enzymatic assay, according to the manufacturer instructions. Enzyme activity was measured in a flat-bottomed 96-well plate. Compound solution (3 μL), 4.29 μg/μL leukocytes homogenate (7 μL), and substrate 4-methylumbelliferyl-β-D-glucoside (3.33 mM, 20 μL, Sigma-Aldrich) in citrate/phosphate buffer (0.1:0.2, M/M, pH 5.8) containing sodium taurocholate (0.3%) and Triton X-100 (0.15%) at 37 °C were incubated for 1 h. The reaction was stopped by addition of sodium carbonate (200 μL; 0.5 M, pH 10.7) containing Triton X-100 (0.0025%), and the fluorescence of 4-methylumbelliferone released by β-glucosidase activity was measured in SpectraMax M2 microplate reader (λex = 365 nm, λem = 435 nm; Molecular Devices). Percentage GCase inhibition is given with respect to the control (without compound). Data are mean SD (n = 3).
# The IC50 values of inhibitors against GCase were determined by measuring the initial hydrolysis rate with 4-methylumbelliferyl-β-D-glucoside (3.33 mM). Data obtained were fitted by using the appropriate Equation (for more details, see the Supporting Information section).
# Percentage of GCase inhibition of compounds 14, 15 and 33.HCl towards human GCase Percentage of GCase inhibition of the whole collection of compounds in human leukocytes extracts incubated with iminosugars at 1 mM concentration.
# IC50 determination: The IC50 values of inhibitors against GCase were determined by measuring the initial hydrolysis rate with 4-methylumbelliferyl-β-D-glucoside (3.33 mM). Data obtained were fitted to the following equation using the Origin Microcal program. where Vi/Vo, represent the ratio between the activity measured in the presence of the inhibitor (Vi) and the activity of the control without the inhibitor (V0), “x” the inhibitor concentration, Max and Min, the maximal and minimal enzymatic activity observed, respectively.
# (also on this page, place not known: Min IC x MinMax Vo Vi slope + […] […] […] […] […] […]+ −= 50 1 (V i) activity nmoli/mg/h)
# (1 picture or pasted object on this page, not shown here)
# [1] = target: T2, GCase in fibroblasts bearing the N370S/RecNcil mutation (Homo sapiens, UniProt P04062, A495P/L483P/N409S); assay: Pharmacological chaperoning activity in N370S/RecNcil Gaucher fibroblasts; assay type: cell-based; details: for GCase enzymatic activity rescue: 4 days incubation; for cell viability: 50 µM and 100 µM, 4 days
# T2 construct: fibroblasts derived from Gaucher patients bearing the N370S/RecNcil and L444P/L444P mutations; host or cells: fibroblasts from Gaucher disease patients, N370S/RecNcil
# T2 sequence (P04062 40-536 N409S): T1 sequence (P04062 40-536) with N370S
# Method: The ability of compounds 14 and 15 to enhance the activity of GCase after incubation (4 days) with fibroblasts bearing the selected mutations was evaluated. The experiments were performed using fibroblasts derived from Gaucher patients bearing the N370S/RecNcil and L444P/L444P mutations (see the Supporting Information section).
# Fibroblasts with the N370S/RecNcil (or L444P/L444P) mutation from Gaucher disease patients were obtained from the “Cell line and DNA Biobank from patients affected by Genetic Diseases” (Gaslini Hospital, Genova, Italy). Fibroblast cells (15.0 × 10^4) were seeded in T25 flasks with DMEM supplemented with fetal bovine serum (10%), penicillin/streptomycin (1%), and glutamine (1%) and incubated at 37 °C with 5% CO2 for 24 h. The medium was removed, and fresh medium containing the compounds (14, 15 and 33·HCl) was added to the cells and incubated for 4 days. The medium was removed, and the cells were washed with PBS and detached with trypsin to obtain cell pellets, which were washed four times with PBS, frozen, and lysed by sonication in water. Enzyme activity was measured as reported above. Reported data are mean S.D. (n = 2).
# Pharmacological chaperoning activity
# Figure S50. Fibroblasts derived from GD patients bearing N370S/RecNcil mutations were incubated without (control, ctrl) or with 7 different concentrations (10 nM, 50 nM, 100 nM, 1 μM, 10 μM, 50 μM, 100 μM) of compounds 14 and 15. After 4 days, the flasks containing cells incubated with 50 µM and 100 µM […]
# other concentrations, the GCase activity was determined in lysates from treated fibroblasts. Reported data are mean S.D. (n=2).
# (also on this page, place not known: beta glucosidase activity (nmol/mg/h) beta glucosidase activity (nmol/mg/h)) […]
# Figure S51. Fibroblasts derived from GD patients bearing N370S/RecNcil mutations were incubated without (control, ctrl) or with […] different concentrations (5 nM, 10 nM, 100 nM, 1 μM, 10 μM, 30 μM) of compound 33.HCl. After 4 days, the GCase activity was determined in lysates from treated fibroblasts. Reported […]
# (also on this page, place not known: beta glucosidase activity (nmol/mg/h))
smiles,measurement,setting,value
"CCCCCCCC[C@@H]1[C@@H](O)[C@H](O)[C@H](O)CN1C(CCCCCCC)CCCCCCC.Cl [compound 33·HCl, (2R,3R,4R,5R)-2-Octyl-1-(pentadecan-8-yl)-piperidine-3,4,5-triol Hydrochloride]",GCase inhibition [%],GCase,75%
same,IC50,GCase,130 ± 15 µM
same,GCase enzymatic activity rescue,[1]; 5 nM to 30 μM,no enzymatic activity rescue; also recorded: no GCase activity enhancements
"CCCCCCCC[C@@H]1[C@@H](O)[C@H](O)[C@H](O)CN1CCCCCCCC [compound 15, (2R,3R,4R,5R)-1,2-Dioctylpiperidine-3,4,5-triol]",GCase inhibitory activity relative to monoalkylated counterpart 12,GCase; comparison of IC50 values,twofold more active
same,GCase inhibition [%],GCase,100%
same,IC50,GCase,15 ± 4 µM
same,cell viability,[1],low cell viability
same,GCase enzymatic activity rescue,[1]; 5 nM to 10 μM,no enzymatic activity rescue; also recorded: no GCase activity enhancements
"CCCCCCCC[C@H]1[C@@H](O)[C@H](O)[C@H](O)CN1CCCCCCCC [compound 14, (2S,3R,4R,5R)-1,2-Dioctylpiperidine-3,4,5-triol]",GCase inhibition [%],GCase,100%
same,IC50,GCase,100 ± 9 µM
same,cell viability,[1],low cell viability
same,GCase enzymatic activity rescue,[1]; 5 nM to 10 μM,no enzymatic activity rescue; also recorded: no GCase activity enhancements
